We go through five molecules from patent publication US9919021B2, “Brain permeant peptidomimetic beta-secretase 1 inhibitors for the treatment or prophylaxis of neurological disorders or conditions” (IBET—INSTITUTO DE BIOLOGIA EXPERIMENTAL E TECNOLOGICA, priority 2016, dated 2018).

One data set is described as follows: in vitro. The class given is in vitro ADME, mice. To be noted: mouse, brain homogenate, t1/2 brain. The method, then:
An assay for in vitro metabolic stability was accomplished in order to test the influence of N-terminal acylation on the metabolization profile of the compounds. Therefore, compounds were prepared at 50 μM in phosphate-buffered saline (PBS) with 2% DMSO. An amount of 10 μL of the solution was added to human serum (40 μL) or to 10% of mice brain homogenate in PBS with 0.5% Triton X-100 (40 μL). All compounds were tested using the same biological samples of human serum and mice brain homogenate to ensure identical deactivation conditions. The solutions were incubated during different time periods at 37° C., after which metabolization was stopped by adding one volume of acetonitrile. Precipitated serum and brain proteins were removed by centrifugation at 14 000g for 10 min. […] The remaining peptide in the supernatant was quantified by HPLC-FLU (Merck Hitachi, Elite LaChrom), (exλ=255 nm and emλ=285 nm, to detect compounds containing phenylalanine, and exλ=275 nm and emλ=307 nm whenever tyrosine is present). Chromatographic conditions were as described for determination of enzyme activities. A calibration curve was built for each compound, and the decay in the concentration of the peptide in the incubated samples was followed until approximately 50% decay. The metabolization kinetics of the synthetic peptides followed a monophasic behaviour in vitro.

Data set [1] has as its target T1, BACE-2 (human, recombinant) (Homo sapiens, UniProt Q9Y5Z0).
T1 construct: purchased Enzo
T1 sequence (Q9Y5Z0 63-518): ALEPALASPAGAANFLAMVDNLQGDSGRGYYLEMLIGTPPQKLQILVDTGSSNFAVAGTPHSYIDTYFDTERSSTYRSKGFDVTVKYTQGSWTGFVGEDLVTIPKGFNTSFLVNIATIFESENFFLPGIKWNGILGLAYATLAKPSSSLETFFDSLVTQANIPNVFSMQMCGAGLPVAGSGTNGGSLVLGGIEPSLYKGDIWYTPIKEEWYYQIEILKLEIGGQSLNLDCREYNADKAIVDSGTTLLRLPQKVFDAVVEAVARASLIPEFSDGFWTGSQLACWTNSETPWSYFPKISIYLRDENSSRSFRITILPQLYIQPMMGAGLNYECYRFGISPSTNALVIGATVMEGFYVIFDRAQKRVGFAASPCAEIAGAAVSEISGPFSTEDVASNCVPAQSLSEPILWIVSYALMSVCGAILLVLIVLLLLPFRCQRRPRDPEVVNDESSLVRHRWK
The data set is described as follows: BACE-2 activity assay (fluorogenic substrate, HPLC-FLU). The class given is biochemical. To be noted: pH 4.5, 37° C.; mean value ± standard deviation, n = 3; read-out: Ki^app BACE-2.

The target of data set [2] is T2, BACE-1 (human, recombinant) (Homo sapiens, UniProt P56817).
T2 construct: purchased Sigma-Aldrich
T2 sequence (P56817 46-501): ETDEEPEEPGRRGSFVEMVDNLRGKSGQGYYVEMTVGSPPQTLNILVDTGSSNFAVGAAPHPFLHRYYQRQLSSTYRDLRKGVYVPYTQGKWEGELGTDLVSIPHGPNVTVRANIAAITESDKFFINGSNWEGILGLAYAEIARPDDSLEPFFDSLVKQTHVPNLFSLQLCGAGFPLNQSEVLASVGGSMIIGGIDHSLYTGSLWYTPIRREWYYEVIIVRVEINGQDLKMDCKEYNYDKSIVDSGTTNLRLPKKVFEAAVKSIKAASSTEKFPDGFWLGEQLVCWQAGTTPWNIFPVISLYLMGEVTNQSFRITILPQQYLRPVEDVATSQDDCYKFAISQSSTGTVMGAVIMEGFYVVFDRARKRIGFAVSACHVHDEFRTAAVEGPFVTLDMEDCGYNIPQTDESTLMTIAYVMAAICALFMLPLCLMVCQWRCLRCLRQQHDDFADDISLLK
In words: BACE-1 activity assay (fluorogenic substrate, HPLC-FLU). The class given is biochemical. From the text:
The program started at 90% A for two min, graded to 70% A during ten min and finally to 0% A during two min.

Details of data set [3]: species or system Wistar rats. The settings on record: in vivo, iv; for detection in serum samples: rat. The procedure:
Female mice (n=12, 8-12 weeks, weighing 22-37 g) and male Wistar rats (n=8, 8-12 weeks, weighing 182-201 g) were purchased from Harlan Ibérica, Barcelona, Spain. All animals received a standard diet and water ad libitum. Experiments were conducted according to the Home Office Guidance in the Operation of Animals (Scientific Procedures) Act 1986, published by Her Majesty's Stationary Office, London, UK and the Institutional Animal Research Committee Guide for the Care and Use of Laboratory Animals published by the US National Institutes of Health (NIH Publication No. 85-23, revised 1996), as well as to the currently adopted EC regulations (2010/63/EU). Finally, the studies are in compliance with the ARRIVE Guidelines for Reporting Animal Research' summarized at www.nc3rs.org.uk. Before experiments animals were fasted for 24 h.
PBS was used to prepare a solution of Ia for intravenous administration at a dose of 0.53 mg/kg. Experiments were done in triplicate. Mice and Wistar rats were sacrificed at 0.5, 1 and 2 hours after dosing and were previously anesthetized with sodium pentobarbital (6 mg/kg i.p.) for collection of blood by cardiac puncture and brain tissue was perfused by intraventricular injection of 10 mL of chilled saline solution to remove residual blood.
Serum was isolated from the blood samples by centrifugation at 657 g for 10 min, at 4° C. Serum proteins were precipitated with one volume of acetonitrile and were removed by centrifugation at 14000 g for 10 min. Brain was promptly removed and washed with PBS and blotted dry. Meninges were carefully removed. In the case of Wistar rats only cortex and hippocampus were collected while for mice the whole brain was used. The brain samples were homogenized with 2 volumes (V/w) of PBS/acetonitrile/Triton X-100 (50/50/0.5) using firstly a pestle and then a pipette and finally a sonicator. Compound Ic was added as internal standard to best mimic the recovery of compound Ia. The pellet was removed centrifuging at 14000 g for 10 min. Samples were purified by preparative reverse-phase HPLC Using a C18 column (Jupiter, Phenomenex) 250×21.2 mm, 5 μm. Chromatographic conditions were as follow: eluent (A) water/TFA (99.9:0.1, V/V), (B) acetonitrile/water/TFA (90:9.9:0.1, V/V). The linear gradient was started at 80% A, graded to 68% for 2 min and then was kept at 68% for 17 min finally grading to 0% A for 5 min. The flow rate was 10 mL/min and the column was at room temperature. […]
For identification of Ia and its metabolite in Wistar rat brain, samples were analyzed using a 4800plus MALDI-TOF/TOF (AB Sciex) mass spectrometer in the positive reflector MS and MS/MS modes with 3200 laser shots per spectrum and data was collected using the 4000 Series Explorer Software v.3.5.3 (Applied Biosystems). […]

Data set [4] in a line: in vivo pharmacokinetic study in mice after intravenous Ia. To be noted: for detection in brain samples: after intravenous Ia 0.53 mg/kg, HPLC-FLU and LC-MS.
For data set [5] the following is noted: mouse, in vivo, iv.
Where [6] appears, read: pro-BACE-1, pH 4.5, 37° C., mean value ± standard deviation, n = 3, read-out: Ki BACE-1.

Read-outs that look alike come from different tables or passages of the source. Starred links: 1 amine or outer side, 2 acyl side, 3 side chain; linkers in the order of their positions; H or OH if unused. Non-standard residues stand in square brackets, D forms with d. Residues, ends and D or L forms follow the SMILES beside them. LeuΨ(S-CHOHCH2)Ala = CC(C)C[C@H](N[*:1])[C@@H](O)C[C@@H](C)C(=O)[*:2]

The molecule `CC(C)C[C@H](NC(=O)[C@@H](N)CCC(=O)O)C(=O)N[C@@H](CC(=O)O)C(=O)N[C@@H](CC(C)C)[C@@H](O)C[C@@H](C)C(=O)N[C@H](C(=O)N[C@@H](CCC(=O)O)C(=O)N[C@@H](Cc1ccccc1)C(=O)O)C(C)C` [OM00-3, reference compound] (H-ELD[LeuΨ(S-CHOHCH2)Ala]VEF-OH) gave a half-life at 10 µM in “in vitro” of 5.8 ± 0.7 h. In addition, the Ki in data set [1] amounted to 3 ± 0.3 nM.

With `CC(C)C[C@H](NC(=O)[C@@H](N)CCC(=O)O)C(=O)N[C@@H](CC(=O)O)C(=O)N[C@@H](CC(C)C)[C@@H](O)C[C@@H](C)C(=O)N[C@H](C(=O)N[C@@H](Cc1ccccc1)C(=O)N[C@@H](Cc1ccccc1)C(=O)N[C@@H](C)C(=O)N[C@@H](CCC(=O)O)C(=O)N[C@@H](CC(=O)O)C(N)=O)C(C)C` [Id] (H-ELD[LeuΨ(S-CHOHCH2)Ala]VFFAED-NH2), the Ki in data set [1] was found to be 7.3 ± 0.9 nM; in data set [2] (setting [6]), 2 ± 0.1 nM.

In the case of `CC(C)C[C@H](NC(=O)[C@@H](N)CCC(=O)O)C(=O)N[C@@H](CC(=O)O)C(=O)N[C@@H](CC(C)C)[C@@H](O)C[C@@H](C)C(=O)N[C@H](C(=O)N[C@@H](Cc1ccccc1)C(=O)N[C@@H](Cc1ccc(O)cc1)C(=O)N[C@@H](C)C(=O)N[C@@H](CCC(=O)O)C(=O)N[C@@H](CC(=O)O)C(N)=O)C(C)C` [Ic] (H-ELD[LeuΨ(S-CHOHCH2)Ala]VFYAED-NH2), in the data set “in vitro”, the half-life at 10 µM was 2.3 ± 0.1 h. The Ki in data set [1] came to 14.2 ± 2.2 nM; in data set [2], 2 ± 0.1 nM; in data set [2] (setting [6]), 1.9 ± 0.2 nM.

In the case of `CC(=O)N[C@@H](CCC(=O)O)C(=O)N[C@@H](CC(C)C)C(=O)N[C@@H](CC(=O)O)C(=O)N[C@@H](CC(C)C)[C@@H](O)C[C@@H](C)C(=O)N[C@H](C(=O)N[C@@H](Cc1ccccc1)C(=O)N[C@@H](Cc1ccc(O)cc1)C(=O)N[C@@H](C)C(=O)N[C@@H](CCC(=O)O)C(=O)N[C@@H](CC(=O)O)C(N)=O)C(C)C` [Ia] (Ac-ELD[LeuΨ(S-CHOHCH2)Ala]VFYAED-NH2), in “in vitro”, the half-life at 10 µM is 3.4 h. In data set [3], the “detection in rat cortex” value is listed as “not detected”. Further, the “detection in serum samples” value in data set [3] is reported as “detected”; in data set [4] (half an hour after intravenous Ia 0.53 mg/kg, HPLC-FLU), “not detected”. Besides, in data set [4], the “detection in brain samples” value is recorded as “could not be detected”. Further, the Ki was determined as 18.3 ± 0.5 nM in data set [1] and 2 ± 0.6 nM in data set [2] (setting [6]).

In the case of `CC(C)C[C@H](NC(=O)[C@@H](N)CCC(=O)O)C(=O)N[C@@H](CC(=O)O)C(=O)N[C@@H](CC(C)C)[C@@H](O)C[C@@H](C)C(=O)N[C@H](C(=O)N[C@@H](Cc1ccccc1)C(=O)N[C@@H](Cc1ccc(O)cc1)C(=O)N[C@@H](C)C(=O)N[C@@H](CCC(=O)O)C(=O)N[C@@H](CC(=O)O)C(=O)O)C(C)C` [Ig] (H-ELD[LeuΨ(S-CHOHCH2)Ala]VFYAED-OH), the half-life at 10 µM in the data set “in vitro” was 6 ± 0.3 h. Also, the “concentration in mice brain” value in data set [5] is given as “approximately 20 nM”. For the same molecule, the “detection in rat cortex” value in data set [3] was “detected”. Besides, the “detection in serum samples” value in data set [3] is listed as “detected”. In addition, the “detection in brain samples” value in data set [4] was “found within therapeutic concentrations”. The Ki in data set [1] was 12.7 ± 1.9 nM; in data set [2] (setting [6]), 1.7 ± 0.2 nM.

As usually defined, the half-life is the time in which the quantity being followed falls by half. The low end stands for fast loss, the high end for slow loss.
